# Test results taken from patent publication US12338203B2 (TAISHO PHARMACEUTICAL CO., LTD., priority 2019, dated 2025).
# Target: T1, human LPAR1 (Homo sapiens, UniProt Q92633)
# T1 construct: expressed in transfected cells
# Assay: Test Example 1: antagonism against response of LPA-induced increase in intracellular Ca2+ concentration in RH7777 cells stably expressing human LPAR1
# Assay type: cell-based
# Settings: RH7777 cells stably expressing human LPAR1; Fluo-4 fluorescence, FDSS6000; read-out: IC50 value (concentration producing 50% antagonism against response of LPA-induced increase in intracellular Ca2+ concentration) (converted)
# In short: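 Ca2+ flux read at 540 nm emission (480 nm excitation) after LPA addition to human LPAR1-expressing RH7777 cells exposed to compound for 30 min, 37 °C, pH 7.4 HEPES-buffered HBSS. Response relative to no-compound control after basal subtraction; IC50 fitted from concentration–response.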
# T1 sequence (Q92633 whole entry): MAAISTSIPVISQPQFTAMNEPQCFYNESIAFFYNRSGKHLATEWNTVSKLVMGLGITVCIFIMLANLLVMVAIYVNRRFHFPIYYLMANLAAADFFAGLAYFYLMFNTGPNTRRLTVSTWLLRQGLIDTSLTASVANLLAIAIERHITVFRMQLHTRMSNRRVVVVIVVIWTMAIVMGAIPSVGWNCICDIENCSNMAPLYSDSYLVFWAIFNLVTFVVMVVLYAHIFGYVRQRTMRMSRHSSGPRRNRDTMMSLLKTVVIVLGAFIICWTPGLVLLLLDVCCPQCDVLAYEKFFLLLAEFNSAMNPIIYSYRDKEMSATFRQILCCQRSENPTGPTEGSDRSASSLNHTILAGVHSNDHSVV
row,Compound,IC50 [nM]
1,CCOc1cc(C(CO)N(CCCCc2ccccc2)C(=O)NC2(C(=O)O)CC(F)(F)C2)cc(OCC)c1C (stereo not shown) [Example 3-5],4.88
2,CCOc1cc([C@@H](C)N(CCCc2ccncc2)C(=O)NC2(C(=O)O)CC(F)(F)C2)cc(COC)c1C [Example 4-30],178
3,"CCOc1cc([C@@H](C)N(CCCCc2ccccc2)C(=O)NC2(C(=O)O)CCC2)cc(OCC)c1C(C)O (single isomer, unassigned) [Example 1-22]",1.47
4,"CCOc1cc([C@@H](C)N(CCCCc2ccccc2)C(=O)NC2(c3nnn[nH]3)CC(F)(F)C2)cc(OCC)c1C(C)=O [Example 10-7, N-[(1R)-1-(4-Acetyl-3,5-Diethoxyphenyl)Ethyl]-N′-[3,3-Difluoro-1-(1H-Tetrazol-5-Yl)Cyclobutyl]-N-(4-Phenylbutyl) Urea]",2.97
5,CCOc1cc(C(C)N(CCCCc2ccccc2)C(=O)NC2(c3nn[nH]n3)CC2)cc(OCC)c1C(C)=O (stereo not shown) [Example 10-3],1.9
6,"CCOc1cc([C@@H](C)N(CCCCc2ccccc2)C(=O)NC2(C(=O)O)CC(OC)C2)cc(OCC)c1C(C)O (single isomer, unassigned) [Example 1-89]",2.21
7,CCOc1cc([C@@H](C)N(CCCCc2ccccc2)C(=O)NC2(C(=O)O)CCCCC2)cc(OCC)c1C [Example 1-118],42.8
8,CCOc1cc(C(C)N(CCCCc2ccccc2)C(=O)NC2(C(=O)O)CC(F)(F)C2)c2ccn(CC)c2c1 (stereo not shown) [Example 5-95],7.22
9,CC(c1ccc2c(c1)OCCO2)N(CCCCc1ccccc1)C(=O)NC1(C(=O)O)CC(F)(F)C1 (stereo not shown) [Example 5-91],711
10,CCOc1cc([C@@H](C)N(CCC(F)(F)Cc2ccccc2)C(=O)N[C@]2(C(=O)O)C[C@@H](OC)C2)cc(OCC)c1C1CC1 [Example 4-91],1.97
11,"CCOc1cc(OCC)cc(C(C)N(CCCCc2ccccc2)C(=O)NC2(C(=O)OC)CCCC2)c1 (stereo not shown) [Example 6-2, Methyl 1-({[1-(3,5-Diethoxyphenyl)Ethyl](4-Phenylbutyl) Carbamoyl}Amino)Cyclopentane-1-Carboxylate]",3760
12,CCOc1c(C(C)=O)ccc([C@@H](C)N(CCCCc2ccccc2)C(=O)NC2(C(=O)O)CC2)c1C [Example 1-19],4.1
13,CCOc1cc([C@@H](C)N(CCC(F)(F)Cc2ccccc2)C(=O)NC2(C(=O)O)CCC2)cc(OCC)c1C1CC1 [Example 4-82],4.1
14,CCNc1cc(C(C)N(CCCCc2ccccc2)C(=O)NC2(C(=O)O)CCC2)cc(OCC)c1C#N (stereo not shown) [Example 5-113],3.58
15,CCOc1cc([C@@H](C)N(CCCCc2ccccc2)C(=O)NC(C)(C)C(=O)O)cc(OCC)c1C [Example 1-13],20.4
16,COc1cc([C@@H](C)N(CCCCc2ccccc2)C(=O)NC2(C(=O)O)CC(F)(F)C2)cc(OC)c1C [Example 1-67],1.6
17,CCOc1cc(C(C)N(CCCCc2ccccc2)C(=O)NC2CC(C(=O)O)C2)cc(OCC)c1C(C)=O (stereo not shown) [Example 1-128],6.38
18,CCOc1cc(C(C)N(CCCCc2ccccc2)C(=O)NC2CCC[C@H]2C(=O)O)cc(OCC)c1C (stereo partly shown) [Example 1-136],18.2
19,CCOc1cc([C@@H](C)N(CCCCc2ccccc2)C(=O)NC2CCCC2C(=O)O)cc(OCC)c1C(C)=O (stereo partly shown) [Example 1-135],2.17
20,CCOc1cc(C(C)N(CCCCc2ccccc2)C(=O)NC2CC(C(=O)O)C2)cc(OCC)c1C(C)=O (stereo not shown) [Example 1-129],9.98
21,CCOc1cc([C@@H](C)N(CCC(F)(F)Cc2ccccc2)C(=O)NC2CC(C(=O)O)C2)cc(OCC)c1C1CC1 (stereo partly shown) [Example 4-83],80.8

# Second part, the compound after the results:
row,IC50 [nM],Compound
1,1.81,"CCOc1cc([C@@H](C)N(CCCCc2ccccc2)C(=O)NC2(C(=O)O)CC(F)(F)C2)cc(OCC)c1C(C)O (single isomer, unassigned) [Example 1-35]"
2,8.19,"CCOc1cc([C@@H](C)N(CCO[C@@H](C)c2ccccc2)C(=O)NC2(C(=O)O)CCOCC2)cc(OCC)c1C(C)O (single isomer, unassigned) [Example 4-144]"
3,7.62,CCOc1cc([C@@H](C)N(CCC2Cc3ccccc3C2)C(=O)NC2(C(=O)O)CC(OC)C2)cc(OCC)c1C(C)=O (stereo partly shown) [Example 4-22]
4,3.77,CCOc1cc([C@@H](C)N(CCCCc2ccccc2)C(=O)NC2(C(=O)O)CC(OC)C2)c(Cl)c(OCC)c1C(C)=O (stereo partly shown) [Example 5-48]
5,2.33,"CCOc1cc([C@@H](C)N(CCCCc2ccccc2)C(=O)N[C@]2(C(=O)O)C[C@@H](OC)C2)cc(OCC)c1C(C)=O [Example 1-86, Trans-1-({[(1R)-1-(4-Acetyl-3,5-Diethoxyphenyl)Ethyl](4-Phenylbutyl) Carbamoyl}Amino)-3-Methoxycyclobutane-1-Carboxylic Acid]"
6,4.84,CCOC1CC(NC(=O)N(CCOCc2ccccc2)C(C)c2cc(OC)c(C(C)=O)c(OC)c2C)(C(=O)O)C1 (stereo not shown) [Example 5-164]
7,443,CCOc1cc(C(C)N(CCO[C@@H](C)c2ccccc2)C(=O)NC2(C(=O)OC)CC(F)(F)C2)c(Cl)c(OCC)c1C(C)=O (stereo partly shown) [Example 6-7]
8,10.1,CCOc1cc([C@@H](C)N(CCC(F)(F)Cc2ccccc2)C(=O)NC2(C(=O)O)CC(OC)C2)cc(OCC)c1C(C)=O (stereo partly shown) [Example 4-90]
9,2.9,CCOc1c(C(C)=O)ccc([C@@H](C)N(CCCC(F)(F)c2ccccc2)C(=O)NC2(C(=O)O)CC(F)(F)C2)c1C [Example 4-60]
10,6.25,CCOC1CC(NC(=O)N(CCOC(C)c2ccccc2)C(C)c2cc(OC)c(C)c(OC)c2C)(C(=O)O)C1 (stereo not shown) [Example 5-170]
11,1.56,"CCOc1cc([C@@H](C)N(CCO[C@@H](C)c2ccccc2)C(=O)N[C@]2(C(=O)O)C[C@@H](OCC)C2)c(Cl)c(OCC)c1C(C)O (single isomer, unassigned) [Example 5-62]"
12,4.02,CCOc1cc(C(C)N(CCCCc2ccccc2)C(=O)NC2(C(=O)O)CC(F)(F)C2)cc(OCC)c1Br (stereo not shown) [Example 1-42]
13,0.516,CCOc1cc([C@@H](C)N(CCOCc2ccccc2)C(=O)NC2(C(=O)O)CCOCC2)c(Cl)c(OCC)c1C(C)=O [Example 5-39]
14,7.82,CCOc1cc([C@@H](C)N(CCO[C@@H](C)c2ccccc2)C(=O)NC2(C(=O)O)CC(OC)C2)cc(OCC)c1C(C)O (stereo partly shown) [Example 4-123]
15,5.04,CCCOc1cc(C(C)N(CCCCc2ccccc2)C(=O)NC2(C(=O)O)CC(F)(F)C2)cc(OCC)c1C (stereo not shown) [Example 1-69]
16,3.63,"CCOc1cc([C@@H](C)N(CCO[C@@H](C)c2ccccc2)C(=O)N[C@]2(C(=O)O)C[C@@H](OCC)C2)cc(OCC)c1C(C)=O [Example 4-97, Trans-1-[([(1R)-1-(4-Acetyl-3,5-Diethoxyphenyl)Ethyl]{2-[(1S)-1-Phenylethoxy]Ethyl}Carbamoyl)Amino]-3-Ethoxycyclobutane-1-Carboxylic Acid]"
17,22.1,CCOc1cc([C@@H](C)N(CCC(F)(F)Cc2ccccc2)C(=O)NC2(C(=O)O)CCOCC2)c(Cl)c(OCC)c1C(C)=O [Example 5-43]
18,43.4,"CCOc1cc([C@@H](C)N(CCC(F)(F)Cc2ccccc2)C(=O)NC2(C(=O)O)CCOCC2)c(Cl)c(OCC)c1C(C)O (stereo partly drawn) [Example 5-67, 4-{[{(1R)-1-[2-Chloro-3,5-Diethoxy-4-(1-Hydroxyethyl)Phenyl]Ethyl}(3,3-Difluoro-4-Phenylbutyl) Carbamoyl]Amino}Oxane-4-Carboxylic Acid]"
19,3.1,CCOc1cc(C(C)N(CCCCc2ccccc2)C(=O)NC2(C(=O)O)CC(OCC)C2)c(Cl)c(OCC)c1C(C)=O (stereo not shown) [Example 5-50]
